Marks after values point to notes of the source that are not given here.
Legend:
Type in all cases: in vivo, Arabidopsis thaliana
tnp seedlings = assay: Penetrance of the tnp phenotype in seedlings germinated and grown on medium containing the compound; details: for effect on penetrance of the tnp phenotype: tnp seed germinated and grown in presence of the compound, result in words
Method: In order to establish whether the incomplete penetrance was due to methylation-dependent gene silencing, individual T3 sibling lines were germinated in the presence of 100 μM 5-azacytidine, a methylation inhibitor (Jones and Taylor, 1980 Cell 20, 85-93). […]
The tnp mutant phenotype is similar to that of the pkl mutant, which is characterised by the development of swollen and greenish roots that accumulate triacylglycerols and protein bodies (Ogas et al, 1997 Science 277, 91-94; Ogas et al, 1999 Proc. Natl. Acad. Sci. USA 96, 13839-13844). The penetrance of the pkl mutant phenotype is also variable and is affected by gibberellic acid and the gibberellin biosynthesis inhibitor, uniconazole-P. In order to determine whether growth factors have an effect on the penetrance of the tnp phenotype, the tnp seed was germinated and grown in the presence of a number of compounds (see Table 2).
Given the large quantities of starch stored in tnp, the effect of sugars on penetrance was examined. […] Furthermore, the effect of 1% glucose or fructose was not as potent as the effect obtained from sucrose alone. […] The effect of sugars on the penetrance of tnp was not due to an osmotic effect, since mannitol was ineffective at inducing penetrance in the absence of sugar (data not shown).

LEC2 transcripts = assay: Semi-quantitative RT-PCR of LEC2 transcript in treated tnp seedlings; details: tnp seedlings at 1-2 days post-germination
Text: (§1) Alternatively, it is possible that these compounds may act by changing the expression of other key embryonic regulators to alter penetrance. FUS3 and LEC2 play key roles in embryogenesis and the transition to germination (Luerben et al, 1998 Plant J. 15, 755-764; Stone et al, 2001 Proc. Natl. Acad. Sci. USA 98, 11806-11811; Kroj et al, 2003 Development 130, 6065-6073). Semi-quantitative RT-PCR was used to determine whether the transcript levels in these genes were affected in tnp seedlings at 1-2 days post-germination in response to treatment with these compounds (see FIG. 10b).

FUS3 transcript = assay: Semi-quantitative RT-PCR of FUS3 transcript in treated tnp seedlings; details: tnp seedlings at 1-2 days post-germination
Text: as §1

LEC1 transcript = assay: Semi-quantitative RT-PCR of LEC1 transcript in treated germinating seedlings; details: tnp and pls control seedlings, RNA at 1-2 days post-germination
Method: To investigate the mechanism by which these compounds work, germinating seedlings were treated with each of the compounds, as well as with gibberellic acid (which has no effect on penetrance), and RNA was extracted at 1-2 days post-germination. […] Therefore, the effect of these compounds on penetrance is not mediated by alterations in LEC1 transcript levels, although post-transcriptional or translational effects cannot be excluded.

[1] = Table 2 first series (1/2 MS10 control 32.8), 10 nM
[2] = Table 2 second series (1/2MS10 control 47.8), 10 nM
[3] = Table 2 second series (1/2MS10 control 47.8), 100 nM
[4] = Table 2 second series (1/2MS10 control 47.8), 1 μM
[5] = Table 2 first series (1/2 MS10 control 32.8), 10 uM

O=C(O)COc1ccc(Cl)cc1Cl [2,4-D, 2,4-dichlorophenoxyacetic acid]
% tnp (tnp seedlings; 0% suc. + 10 nm 2,4-D): 2%
% tnp (tnp seedlings; 1% suc. + 10 nm 2,4-D): 85.1%
% tnp (tnp seedlings; 2% suc. + 10 nm 2,4-D): 92.3%
% tnp (tnp seedlings; 3% suc. + 10 nm 2,4-D): 84.1%
% tnp (tnp seedlings; 4% suc. + 10 nm 2,4-D): 68.9%
% tnp (tnp seedlings; 5% suc. + 10 nm 2,4-D): 82.4%
% tnp (tnp seedlings; 6% suc. + 10 nm 2,4-D): 66.0%
% tnp (tnp seedlings; [1]): 78.1%
% tnp (tnp seedlings; [2]): 82.1%
% tnp (tnp seedlings; [3]): 95.3%
% tnp (tnp seedlings; [4]): 98.2%
tnp penetrance compared with sucrose alone (tnp seedlings; addition of 10 nM 2,4-D to the medium, even in absence of sucrose): greater penetrance
penetrance of the tnp phenotype (tnp seedlings; concentration of 1 μM): ~100%
penetrance of tnp (tnp seedlings; medium containing 20% sucrose and 25 nM 2,4-D, no effect on growth): highest penetrance
effect on penetrance of the tnp phenotype (tnp seedlings): positive effect
levels of LEC2 transcripts (LEC2 transcripts): significantly reduce
FUS3 transcript levels (FUS3 transcript): increase

c1ccc(CNc2ncnc3nc[nH]c23)cc1 [BA, N(6)-benzyladenine]
% tnp (tnp seedlings; Table 2 first series (1/2 MS10 control 32.8), 100 nM): 9.9%
% tnp (tnp seedlings; [2]): 55%
% tnp (tnp seedlings; [3]): 35.6%
% tnp (tnp seedlings; [4]): 5%
effect on penetrance of the tnp phenotype (tnp seedlings): markedly suppressed
levels of LEC2 transcripts (LEC2 transcripts): significantly reduce
FUS3 transcript levels (FUS3 transcript): reduction

O=C(O)Cc1c[nH]c2ccccc12 [IAA, indole-3-acetic acid]
% tnp (tnp seedlings; Table 2 first series (1/2 MS10 control 32.8), 50 nM): 69.1%
effect on penetrance of the tnp phenotype (tnp seedlings): positive effect

O=C(CO)[C@@H](O)[C@H](O)[C@H](O)CO [fructose]
effect on tnp penetrance compared with sucrose alone (tnp seedlings; 1% sugar, data not shown): not as potent

Nc1ncn([C@@H]2O[C@H](CO)[C@@H](O)[C@H]2O)c(=O)n1 [5-AZA-C, 5-azacytidine]
% tnp (tnp seedlings; T3 Line 1, 100 μm 5-AZA-C, 1/2MS10 control 28): 62%
% tnp (tnp seedlings; T3 Line 7, 100 μM 5-AZA-C, 1/2MS10 control 0): 7.4%
% tnp (tnp seedlings; T3 Line 21, 100 μM 5-AZA-C, 1/2MS10 control 41): 48%
penetrance of the tnp phenotype compared with control levels (tnp seedlings; T3 sibling lines germinated in presence of 100 μM, highly variable between lines): increase in the penetrance

OC[C@H]1O[C@@](CO)(O[C@H]2O[C@H](CO)[C@@H](O)[C@H](O)[C@H]2O)[C@@H](O)[C@@H]1O [suc., sucrose]
% tnp (tnp seedlings; 1% suc. in medium): 60.5%
% tnp (tnp seedlings; 2% suc. in medium): 65.4%
% tnp (tnp seedlings; 3% suc. in medium): 58.4%
% tnp (tnp seedlings; 4% suc. in medium): 52.4%
% tnp (tnp seedlings; 5% suc. in medium): 54.1%
% tnp (tnp seedlings; 6% suc. in medium): 42.8%
level of tnp penetrance over sucrose concentrations (tnp seedlings; concentration of 2% sucrose): highest level of penetrance

C=C1C[C@]23C[C@@]1(O)CC[C@H]2[C@@]12C=C[C@H](O)[C@@](C)(C(=O)O1)[C@H]2[C@@H]3C(=O)O [GA, gibberellic acid]
effect on the positive effect of paclobutrazol on tnp penetrance (tnp seedlings; 10 nM paclobutrazol and 10 μM gibberellic acid together, data not shown): partially suppressed
% tnp (tnp seedlings; [5]): 37.3%
% tnp (tnp seedlings; [2]): 42.1%
% tnp (tnp seedlings; [3]): 52%
% tnp (tnp seedlings; [4]): 58.4%
% tnp (tnp seedlings; Table 2 second series (1/2MS10 control 47.8), 10 μM): 45.4%
effect on penetrance of the tnp phenotype (tnp seedlings): weakly positive effect
LEC1 transcript levels (LEC1 transcript): unaltered
levels of LEC2 transcripts (LEC2 transcripts): significantly reduce
FUS3 transcript levels (FUS3 transcript): did not have a significant effect

CC1=CC(=O)CC(C)(C)[C@@]1(O)/C=C/C(C)=C\C(=O)O [ABA, abscisic acid]
effect on penetrance of the tnp phenotype (tnp seedlings): not found to have an effect

OC[C@@H](O)[C@@H](O)[C@H](O)[C@H](O)CO [mannitol]
inducing tnp penetrance in the absence of sugar (tnp seedlings; osmotic control, data not shown): ineffective

CC(C)(C)[C@@H](O)[C@@H](Cc1ccc(Cl)cc1)n1cncn1 (racemic) [Paclobutrazol, paclobutrazol]
% tnp (tnp seedlings; [2]): 84.7%
% tnp (tnp seedlings; [3]): 72.3* %
effect on penetrance of the tnp phenotype (tnp seedlings): increased
LEC1 transcript levels (LEC1 transcript): unaltered
levels of LEC2 transcripts (LEC2 transcripts): no effect
FUS3 transcript levels (FUS3 transcript): did not have a significant effect

NC1(C(=O)O)CC1 [ACC, 1-aminocyclopropane-1-carboxylate]
% tnp (tnp seedlings; Table 2 first series (1/2 MS10 control 32.8), 100 pM): 29.3%
effect on penetrance of the tnp phenotype (tnp seedlings): little effect

O=C(O)Cc1cccc2ccccc12 [NAA, naphthaleneacetic acid]
% tnp (tnp seedlings; [1]): 42.8%

O=C(O)COc1cccc2ccccc12 [NOA, naphthoxyacetic acid]
% tnp (tnp seedlings; [5]): 58.8%
effect on penetrance of the tnp phenotype (tnp seedlings): positive effect

O=C(O)c1ccccc1C(=O)Nc1cccc2ccccc12 [NPA, 1-N-naphthylphthalamic acid]
% tnp (tnp seedlings; [5]): 55.4%
effect on penetrance of the tnp phenotype (tnp seedlings): positive effect
